Experiment [1] deals with blood pressure of patients. Conditions: cited from earlier work; for therapeutic effect on sleeping BP: ARB, bedtime in comparison with morning ingestion schedule; for effect on asleep versus awake SBP and DBP means: ACEI, evening or bedtime administration.
The next experiment deals with hypertensive subjects. The experiment in a line: 32-day losartan administration-time study with NIBP/SBP time series and spectral analysis. The class given is in vivo, human. As for the experimental part: Because dipping status is determined by (a) sleep BP and (b) awake BP, it might be expected that the 2 determinants would have equal weight. […] Although there is evidence that an extreme dipping pattern may lead to nocturnal cerebral ischemia, there is also evidence that nondippers are at greater risk for cardiovascular morbidity than dippers, both for cardiovascular events and for progression of kidney disease. […] This is exactly what we have observed with losartan.
To illustrate the advantages of the present technology, a, a series of alternate schedules for administering a single, strong 100 mg oral dose of the rapidly-absorbed angiotensin receptor blocker, losartan, were explored (03:00; 09:00; 21:00; etc.). Subjects […] informed consent according to applicable U.S. law and regulations. Baseline drug-holiday NIBP measurements were collected in each subject for a period of 32 days. Subjects who had other comorbid health conditions besides hypertension were excluded, as were subjects who required two or more antihypertensive medications for blood pressure control.
Under the experimental protocol, a two-week wash-out interval was interposed between a 32-day treatment period with one administration time and the next 32-day period. Subjects were randomized as to which administration time sequence.
All of the 32-day timing regimens were monitored so as to establish administration timing compliance with a timing precision of +15 min. […]
Records were randomly selected from a patient health records data warehouse, which is derived from Cerner electronic health record (EHR) from 100% of episodes of care that are incident upon the participating health institutions. […] The SBP data is cast into the form of a time series, and analyzed the sequences using the open-source R statistical packages psd, seewave, and tuneR. […]

The subject of another experiment is blood pressure patient. Description: Example 1: evaluation pack trial of Losartan formulations against diagnostic targets. The format is in vivo, human. As for the experimental part:
Example 1: A blood pressure patient is currently medicated, but appears to be medicated at an insufficient level. For example, the patient has been taking 50 mg of Losartan at various ingestion times, but has experienced some severe headaches and nose bleeds in the afternoon particularly on stressful days.
In an embodiment, the evaluation package includes four different formulations labeled A, B, 3A, and 5A arranged in separable columns of constant medication 1027, 1028, 1025, 1030, and 1010, that may be separated by manually tearing package 1000 along perforated divisions 1096, 1097, 1098, and 1099. In an embodiment, dose pack 1000 is formed by selectively applying an adhesive to a foil backing layer to adhere the foil to transparent plastic front layer 1012 containing pills such as 1013 as shown in FIG. 10. In an embodiment, a label such as “5A” is provided on the dose itself such as label 1015 on pill 1013 as viewable in dose display container 1014, and/or on the packaging in label 1011 of constant formulation dosepack represented in column 1010. Advantageously, a patient tears along a perforation 1096 while taking dose A, and only need carry a single column such as 1027 while taking an “A” formulation dose. Similarly columns 1026, 1025, 1030 and 1010 are separable by perforations 1096, 1097, 1098 and 1099. An embodiment of a constant formulation dose pack has 32 cycles of dosage. An embodiment of a constant formulation dose pack has 10 cycles of dosage.
In an embodiment, the “A” formulation corresponds to a pulsatile application of 100 mg Losartan that applies medication nominally 20 minutes after ingestion, the “3A” formulation delays application of 100 mg of Losartan to 3 hours after ingestion. The “5A” formulation delays application of 100 mg of Losartan to 5 hours after ingestion. The “B” formulation is 5 mg amlodipine besylate that applies medication approximately 5 hours after ingestion. In an embodiment the dose sequence spectrum is chosen to center the medication application around a typical peak level. For example, with blood pressure medicine application, a peak plasma level between midnight and 6 a.m. would provide dosage delays centered about 3 a.m. for a patient who is thought to be a normal dipper. An embodiment puts at least one dosage application time in a period of normal peak, for example, between midnight and 6 a.m. for blood pressure application. In an embodiment, different dose levels are provided, such as a trial with 50 mg Losartan, or 150 mg Losartan for the same application time.
Turning now to FIG. 2, there is depicted in 100 a method for a computer to execute a method of personal health evaluation. At 205, a patient manager such as 140 is configured through a clinician evaluation template to present results to the patient on patient interface 141 after the clinician has released the information to the patient for viewing, explanation. In an embodiment a template includes a monitor identifier, a patient identifier, such as social security number and/or full name and zip code, and an identification code for the dose pack such as product ID code “AB27YAM” shown in identifier 1050. In an embodiment the template includes a set of patient instructions to guide patient through the use of the monitor device. In an embodiment, the patient is instructed to wear the monitor continuously with unmonitored stretches of no greater than a half an hour. […] In an embodiment, the template includes information such as gender (male or female), weight, height, body mass index, other conditions, other mediations, patient history, patient age, a diagnostic target, a clinical input to be monitored, a period statistic to be measured, a period variability measure to be evaluated, a variation, etc. […]

In the case of `CCCc1nc2c(C)cc(-c3nc4ccccc4n3C)cc2n1Cc1ccc(-c2ccccc2C(=O)O)cc1` [telmisartan], in experiment [1], the “therapeutic effect on sleeping BP” value is recorded as “greater therapeutic effect on sleeping BP”.

In the case of `NCCCC[C@H](N[C@@H](CCc1ccccc1)C(=O)O)C(=O)N1CCC[C@H]1C(=O)O` [lisinopril], in experiment [1], the “effect on asleep versus awake SBP and DBP means” value is “more marked effect on the asleep than awake”.

For the compound `CCOC(=O)[C@H](CCc1ccccc1)N[C@@H](C)C(=O)N1[C@H](C(=O)O)C[C@@H]2CCC[C@@H]21` [ramipril], the “effect on asleep versus awake SBP and DBP means” value in experiment [1] is “more marked effect on the asleep than awake”.

With `CCC[C@H](N[C@@H](C)C(=O)N1[C@H](C(=O)O)C[C@@H]2CCCC[C@@H]21)C(=O)OCC` [perindopril], in experiment [1], the “effect on asleep versus awake SBP and DBP means” value was “more marked effect on the asleep than awake”.

Consider `CCOC(=O)[C@H](CCc1ccccc1)N[C@H]1CCc2ccccc2N(CC(=O)O)C1=O` [benazepril], for which the “effect on asleep versus awake SBP and DBP means” value in experiment [1] is reported as “more marked effect on the asleep than awake”.

For `C[C@H](CS)C(=O)N1CCC[C@H]1C(=O)O` [captopril], the “effect on asleep versus awake SBP and DBP means” value in experiment [1] is given as “more marked effect on the asleep than awake”.

Consider `CCOC(=O)[C@H](CCc1ccccc1)N[C@@H](C)C(=O)N1CCC[C@H]1C(=O)O` [enalapril], for which, in experiment [1], the “effect on asleep versus awake SBP and DBP means” value is “more marked effect on the asleep than awake”.

As for `CCOC(=O)[C@H](CCc1ccccc1)N[C@@H](C)C(=O)N1CC2(C[C@H]1C(=O)O)SCCS2` [spirapril], in experiment [1], the “effect on asleep versus awake SBP and DBP means” value was “more marked effect on the asleep than awake”.

In the case of `CCOC(=O)[C@H](CCc1ccccc1)N[C@@H](C)C(=O)N1[C@H](C(=O)O)C[C@H]2CCCC[C@@H]21` [trandolapril], the “effect on asleep versus awake SBP and DBP means” value in experiment [1] is “more marked effect on the asleep than awake”.

In the case of `CCCCC(=O)N(Cc1ccc(-c2ccccc2-c2nnn[nH]2)cc1)[C@H](C(=O)O)C(C)C` [valsartan], in experiment [1], the “therapeutic effect on sleeping BP” value is listed as “greater therapeutic effect on sleeping BP”.

`CCCCC1=NC2(CCCC2)C(=O)N1Cc1ccc(-c2ccccc2-c2nnn[nH]2)cc1` [irbesartan]: the “therapeutic effect on sleeping BP” value in experiment [1] was “greater therapeutic effect on sleeping BP”.

`CCCCc1nc(Cl)c(CO)n1Cc1ccc(-c2ccccc2-c2nn[nH]n2)cc1` [losartan]: the “reduction in average blood pressure” value in the experiment on hypertensive subjects (100 mg oral dose, all dosing schedules (03:00; 09:00; 21:00), 32-day treatment periods) was “reduction in average blood pressure”. The “phase-slips between circadian BP and drug administration” value with hypertensive subjects (100 mg, 21:00 administration time) is given as “occasionally detected”. Besides, in the experiment on hypertensive subjects (administration such that peak plasma levels occur prior to midnight or prior to 06:00), the “normalization of dipping pattern” value is “can normalize extreme dippers, non-dippers, and risers and convert them to normal dippers”. In the experiment with blood pressure patient (100 mg at 21:00), the dipping pattern entry was “achieved a normal dipping pattern”, the “entropy relative to untreated regimen” value is recorded as “greatly improved entropy”, the entropy versus target result is “acceptable entropy” and the “max SBP versus target” value is reported as “unacceptable max SBP”. Further, in the experiment on blood pressure patient (100 mg at 21:00), the “range of SBP versus target” value is recorded as “unacceptable range”, the rolloff result is “acceptable rolloff improvement”, the significance versus target result is “acceptable significance” and the stability of rhythm entry is given as “improved stability of rhythm”. Further, in the experiment on blood pressure patient (100 mg at 21:00, compared with untreated regimen), the desired targets met is on record as 5 of 7. Moreover, in experiment [1], the “therapeutic effect on sleeping BP” value is “greater therapeutic effect on sleeping BP”.

In the case of `CCOC(=O)[C@H](CCc1ccccc1)N[C@@H](C)C(=O)N1Cc2ccccc2C[C@H]1C(=O)O` [quinapril], in experiment [1], the “effect on asleep versus awake SBP and DBP means” value was “more marked effect on the asleep than awake”.

Regarding `C[C@H](CSC(=O)c1ccccc1)C(=O)N1C[C@@H](Sc2ccccc2)C[C@H]1C(=O)O` [zofenopril], the “effect on asleep versus awake SBP and DBP means” value in experiment [1] was “more marked effect on the asleep than awake”.

These data come from US12191014B1, “Personal analysis and chronotherapy” (CERNER INNOVATION, INC., priority 2013, dated 2025).
